{"source": "patent US8143025B2", "about": "“Antibodies against vascular endothelial growth factor receptor-1” (ImClone LLC, priority 2004, dated 2012)", "key": {"[1]": {"test_system": "MDA-MB-435 xenograft", "assay": "MDA-MB-435 breast tumor xenograft", "format": "in vivo, mouse", "experimental": "Athymic nude mice (Charles River Laboratories, Wilmington, Mass.) were injected subcutaneously in the left flank area with 2×10^6 of DU4475 cells or 5×10^6 of MDA-MB-231 and MDA-MB-435 cells mixed in Matrigel (Collaborative Research Biochemicals. Bedford, Mass.). In the DU4475 and MDA-MB-231 models, tumors were allowed to reach approximately 200 mm^3 in size and then mice were randomized into groups of 12-16 animals per group. Animals received i.p. administration of the anti-VEGFR-I antibody clones 6F9, 15F11, or 18F1 at a dose of 0.5 mg (MDA-MB-231) or 1 mg (DU4475) three times each week. In the MDA-MB-435 model, the tumor cells were implanted subcutaneously into mammary fat pad area in the mouse. After tumors grew to reach approximately 200 mm^3 in size, mice were randomized into groups of 15 animals per group and intraperitoneally administered with 0.5 mg per dose of 18F1 antibody three times each week. Mice in control groups received an equal volume of saline solution. Treatment of animals was continued for the duration of the experiment. Tumors were measured twice each week with calipers. Tumor volumes were calculated using the formula [π/6 (w1×w2×w2)], where “w1” represents the largest tumor diameter and “w2” represents the smallest tumor diameter. […] Tumor growth was evaluated approximately twice weekly, with tumor volume calculated as π/6* (Length*Width^2), where Length=longest diameter and Width=diameter perpendicular to Length. Tumor dimensions were measured with calipers. T/C % was calculated as 100*(Final Treatment Tumor Volume/Initial Treatment Tumor Volume)/(Final Control Tumor Volume/Initial Control Tumor Volume). […] The effect of treatment on tumor growth was analyzed using repeated measures analysis of variance (RM ANOVA), p<0.05 was considered significant. […] AU treatments were administered i.p. The effect of treatments on tumor growth were analyzed using repeated measures analysis of variance (RM ANOVA), p<0.05 was considered significant."}, "[2]": {"test_system": "SW480 cells", "assay": "Invasion through MATRIGEL coated membrane", "format": "cell-based, human", "conditions": "66 nM antibody, 10 ng/mL VEGF-A or 50 ng/mL VEGF-B, 48 hours, p<0.05, FIG. 24", "experimental": "HT-29 cells (2.5×1 10^4) or SW480 cells (1.5×1 10^4) were incubated in medium containing 1% FBS with the anti-VEGFR-1 antibody 18F1 ([…]) 8.0-μm pore size membrane insert (Becton Dickinson Labware, Bedford, Mass.). The inserts were placed into lower chambers containing 10 ng/mL VEGF-A (R&D Systems) or 50 ng/mL VEGF-B (R&D Systems) for 48 hours. Cells remaining in the top chamber of the inserts were removed with a cotton swab. Cells migrating to the underside of the inserts were stained with Diff-Quik (Harleco, Gibbstown, N.J.) and counted in ten random fields at 100× magnification. Statistical analysis was performed using InStat Statistical Software (V2.03, GraphPad Software, San Diego, Calif.)."}, "[3]": {"test_system": "HT-29 xenograft", "assay": "HT-29 colon cancer xenograft", "format": "in vivo, mouse", "conditions": "monotherapy, FIG. 26A", "experimental": "Female athymic nu/nu mice, 6-8 weeks of age, were injected subcutaneously on the lateral dorsal surface with 0.4 mL volume of a suspension containing a human tumor cell line in media, diluted 1:1 with MATRIGEL™ (BD Biosciences). The cell lines used in xenograft models, with the cell doses indicated in parenthesis (10^6 cells/mouse), were: human colon carcinoma cell lines DLD-I (5), GEO (5) and HT-29 (5); human breast carcinoma cell lines DU4475 (2), MDA-MB-231 (5), MDA-MB-435 (5), and BT474 (5). When tumors reached approximately 200-300 mm^3, mice were randomized by tumor size and divided into treatment groups. Tumor growth was evaluated approximately twice weekly, with tumor volume calculated as π/6* (Length*Width^2), where Length=longest diameter and Width=diameter perpendicular to Length. Tumor dimensions were measured with calipers. T/C % was calculated as 100*(Final Treatment Tumor Volume/Initial Treatment Tumor Volume)/(Final Control Tumor Volume/Initial Control Tumor Volume).\n18F1 was diluted in 0.9% USP saline (Braun) or phosphate buffered saline (PBS) and administered intraperitoneally in a volume of 0.5 mL per mouse. The effect of treatment on tumor growth was analyzed using repeated measures analysis of variance (RM ANOVA), p<0.05 was considered significant."}}, "data": [{"substance": "18F1: human anti-VEGFR-1 monoclonal antibody clone; VL SEQ ID NO: 16, VH SEQ ID NO: 20 [Clone 18F1]", "values": [{"measurement": "tumor growth of the MDA-MB-435 xenograft", "setting": "[1]; 0.5 or 1 mg per dose three times each week, ANOVA p<0.05, FIG. 20C", "value": "statistically significant suppression"}, {"measurement": "growth of MDA-MB-435 xenograft tumors", "setting": "[1]; Example 9, intraperitoneal, p<0.05, FIG. 25B", "value": "significantly (p<0.05) suppressed"}, {"measurement": "VEGFR-I ligand induced invasion", "setting": "[2]", "value": "completely blocked"}, {"measurement": "antitumor effect against HT-29 colon cancer xenografts", "setting": "[3]", "value": "significant antitumor effect"}]}]}
